Values quoted from earlier work, collected in patent US20230200430A1, “ORAL PRODUCTS WITH HIGH-DENSITY LOAD” (NICOVENTURES TRADING LIMITED, priority 2021, published 2023).

Details: qualitative statement

Structure (SMILES)	solubility in water / aqueous environment
C=C(C)[C@@H]1CCC(C)=C[C@H]1c1c(O)cc(CCCCC)cc1O [CBD, cannabidiol, reference compound]	insoluble in an aqueous environment
CC(/C=C/C=C(C)/C=C/C(=O)O)=C\C=C\C=C(C)\C=C\C=C(C)\C=C\C(=O)O (stereo in doubt) [norbixin, (2E,4E,6E,8E,10E,12E,14E,16E,18E)-4,8,13,17-tetramethylicosa-2,4,6,8,10,12,14,16,18-nonaenedioic acid]	water soluble
COC(=O)/C=C/C(C)=C\C=C\C(C)=C\C=C\C=C(C)\C=C\C=C(C)\C=C\C(=O)O [Bixin]	insoluble in water
